Data: US20240174695A1, “Spirocycle Containing Bicyclic Heteroaryl Compounds” (Protego Biopharma, Inc., priority 2022, published 2024)

These compounds were tested on Recombinant amyloidogenic full length light chain protein WIL-FL T46L (assay: Differential Scanning Fluorimetry Assay (thermal shift assay)). Details: Thermal Shift Protein Stability Kit (Biotium), 96-well plates; protein and compounds incubated at RT for 30 min before adding the dye.
Type: binding
Description: Differential Scanning Fluorimetry Assay
The stabilization effects the compounds have on the immunoglobulin light chain protein were quantitively measured using a thermal shift assay. Recombinant amyloidogenic full length light chain protein WIL-FL T46L was produced in E. coli, purified, and used in the assay. The Thermal Shift Protein Stability Kit from Biotium was used and the assay was done in 96-well plates following the manufacturer's instructions. The protein and compounds were incubated at RT for 30 min before adding the dye and subjected to the thermal shift assay. The thermal stability (Tm) of each sample was then determined using standard curve fitting methods and compared to vehicle. Data are expressed as temperature shift: [Tm]compound−[Tm]vehicle.
Results • 0-0.5° C.=* • >0.5-1° C.=** • >1-1.5° C.=*** • >1.5-2.5° C.=**** • >2.5° C.=*****
Further: test concentration or dose not given here.

Row | SMILES | DSF temperature shift: [Tm]compound−[Tm]vehicle
1 | Cc1cc(OCC2(c3ccccc3)CC2)cn2nc(C(O)CN3CC4(CCN(c5ncccn5)CC4)NC3=O)nc12 (stereo not shown) [Compound 56] | ***** (>2.5° C.=*****)
2 | Cc1cc(OCC2(c3ccccc3)CC2)cn2nc(C(O)CN3CC4(CCN(c5nccn6cncc56)CC4)NC3=O)nc12 (stereo not shown) [Compound 57] | ***** (>2.5° C.=*****)
3 | Cc1cc(OCC2(c3ccccc3)CC2)cn2nc(C(O)CN3CC4(CCN(c5cnccn5)CC4)NC3=O)nc12 (stereo not shown) [Compound 58] | ***** (>2.5° C.=*****)
4 | Cc1cc(OCC2(c3ccccc3)CC2)cn2nc(C(O)CN3CC4(CCN(c5cc(F)ncn5)CC4)NC3=O)nc12 (stereo not shown) [Compound 59] | **** (>1.5-2.5° C.=****)
5 | Cc1cc(OCC2(c3ccccc3)CC2)cn2nc(C(O)CN3CC4(CCN(c5ccn(C)n5)CC4)NC3=O)nc12 (stereo not shown) [Compound 61] | **** (>1.5-2.5° C.=****)
6 | Cc1cc(OCC2(c3ccccc3)CC2)cn2nc(C(O)CN3CC4(CCN(c5nnn(C)n5)CC4)NC3=O)nc12 (stereo not shown) [Compound 62] | **** (>1.5-2.5° C.=****)
7 | Cc1cc(OC[C@H](C)c2ccccc2)cn2nc(CCN3CC4(CCN(c5nccn6cncc56)CC4)NC3=O)nc12 [Compound 63] | **** (>1.5-2.5° C.=****)
8 | Cc1cc(OC[C@H](C)c2ccccc2)cn2nc(C(=O)CN3CC4(CCN(c5nccn6cnnc56)CC4)CC3=O)nc12 [Compound 64] | **** (>1.5-2.5° C.=****)
9 | Cc1cc(OC[C@H](C)c2ccccc2)cn2nc(C(C)(O)CN3CC4(CCN(C(=O)c5nncn5C)CC4)NC3=O)nc12 (stereo partly shown) [Compound 65] | **** (>1.5-2.5° C.=****)
10 | Cc1cc(OC[C@H](C)c2ccccc2)cn2nc(C(C)(O)CN3CC4(CCN(C(=O)Cc5ncnn5C)CC4)NC3=O)nc12 (stereo partly shown) [Compound 66] | *** (>1-1.5° C.=***)
11 | Cc1cc(OC[C@H](C)c2ccccc2)cn2nc(C(C)(O)CN3CC4(CCN(c5ccnc(O)c5)CC4)NC3=O)nc12 (stereo partly shown) [Compound 67] | **** (>1.5-2.5° C.=****)
12 | Cc1cc(OC[C@H](C)c2ccccc2)cn2nc(C(C)CN3CC4(CN(c5ccnc(O)c5)C4)NC3=O)nc12 (stereo partly drawn) [Compound 68, 2-(2-hydroxy-4-pyridyl)-7-[2-[8-methyl-6-[(2R)-2-phenylpropoxy]-[1,2,4]triazolo[1,5-a]pyridin-2-yl]propyl]-2,5,7-triazaspiro[3.4]octan-6-one] | **** (>1.5-2.5° C.=****)
13 | Cc1cc(OC[C@H](C)c2ccccc2)cn2nc(C(O)CN3CC4(CCN(C(=O)c5ncn(C)n5)CC4)NC3=O)nc12 (stereo partly shown) [Compound 69] | **** (>1.5-2.5° C.=****)
14 | Cc1cc(OC[C@H](C)c2ccccc2)cn2nc(C(O)CN3CC4(CCN(C(=O)Cc5ncnn5C)CC4)NC3=O)nc12 (stereo partly shown) [Compound 70] | **** (>1.5-2.5° C.=****)
15 | Cc1cc(OC[C@H](C)c2ccccc2)cn2nc(C(O)CN3CC4(CCN(C(=O)Cn5nnnc5C)CC4)NC3=O)nc12 (stereo partly shown) [Compound 71] | **** (>1.5-2.5° C.=****)
16 | Cc1cc(OC[C@H](C)c2ccccc2)cn2nc(C(O)CN3CC4(CCN(c5cccc(O)n5)CC4)NC3=O)nc12 (stereo partly shown) [Compound 72] | **** (>1.5-2.5° C.=****)
17 | Cc1cc(OC[C@H](C)c2ccccc2)cn2nc(C(O)CN3CC4(CCN(c5ccnc(O)c5)C4)NC3=O)nc12 (stereo partly shown) [Compound 73] | *** (>1-1.5° C.=***)
18 | Cc1cc(OC[C@H](C)c2ccccc2)cn2nc(C(O)CN3CC4(CCN(c5ccnc(O)c5)CC4)NC3=O)nc12 (stereo partly shown) [Compound 74] | **** (>1.5-2.5° C.=****)
19 | Cc1cc(OC[C@H](C)c2ccccc2)cn2nc(C(O)CN3CC4(CCN(c5cncnc5)CC4)NC3=O)nc12 (stereo partly shown) [Compound 75] | **** (>1.5-2.5° C.=****)
20 | Cc1cc(OC[C@H](C)c2ccccc2)cn2nc(C(O)CN3CC4(CCN(c5nccn6cnnc56)CC4)NC3=O)nc12 (stereo partly shown) [Compound 76] | ***** (>2.5° C.=*****)
21 | Cc1cc(OC[C@H](C)c2ccccc2)cn2nc(C(O)CN3CC4(CCN(c5nccn6cnnc56)CC4)OC3=O)nc12 (stereo partly shown) [Compound 77] | **** (>1.5-2.5° C.=****)
22 | Cc1cc(OC[C@H](C)c2ccccc2)cn2nc(C(O)CN3CC4(CCN(c5cnccn5)CC4)NC3=O)nc12 (stereo partly shown) [Compound 78] | ***** (>2.5° C.=*****)
23 | Cc1cc(OC[C@H](C)c2ccccc2)cn2nc(C(O)CN3CC4(CCN(C5CCNC(=O)C5)CC4)NC3=O)nc12 (stereo partly shown) [Compound 79] | **** (>1.5-2.5° C.=****)
24 | Cc1cc(OC[C@H](C)c2ccccc2)cn2nc(C(O)CN3CC4(CN(c5ccnc(C(=O)O)c5)C4)NC3=O)nc12 (stereo partly shown) [Compound 80] | ***** (>2.5° C.=*****)
25 | Cc1cc(OC[C@H](C)c2ccccc2)cn2nc(C(O)CN3CC4(CN(c5ccnc(O)c5)C4)OC3=O)nc12 (stereo partly shown) [Compound 81] | ***** (>2.5° C.=*****)

Row | SMILES | DSF temperature shift: [Tm]compound−[Tm]vehicle
26 | Cc1cc(OC[C@H](C)c2ccccc2)cn2nc(C(O)CN3CC4(CN(c5ccnc(S(C)(=N)=O)c5)C4)NC3=O)nc12 (stereo partly shown) [Compound 82] | **** (>1.5-2.5° C.=****)
27 | Cc1cc(OC[C@H](C)c2ccccc2)cn2nc(C(O)CN3CC4(CN(c5cccc(O)n5)C4)NC3=O)nc12 (stereo partly shown) [Compound 83] | ***** (>2.5° C.=*****)
28 | Cc1cc(OC[C@H](C)c2ccccc2)cn2nc(C(O)CN3CC4(CN(c5ccnc(O)c5)C4)NC3=O)nc12 (stereo partly shown) [Compound 84] | ***** (>2.5° C.=*****)
29 | Cc1cc(OC[C@H](C)c2ccccc2)cn2nc(C(O)CN3CC4(CN(c5ccnc(O)n5)C4)NC3=O)nc12 (stereo partly shown) [Compound 85] | ***** (>2.5° C.=*****)
30 | Cc1cc(OC[C@H](C)c2ccccc2)cn2nc(C(O)CN3CC4(CN(c5cccc(C(=O)O)n5)C4)NC3=O)nc12 (stereo partly shown) [Compound 86] | **** (>1.5-2.5° C.=****)
31 | Cc1cc(OC[C@H](C)c2ccccc2)cn2nc(C(O)CN3CC4(CN(c5nccc(C(=O)O)n5)C4)NC3=O)nc12 (stereo partly shown) [Compound 87] | ***** (>2.5° C.=*****)
32 | Cc1cc(OC[C@H](C)c2ccccc2)cn2nc(C(O)CN3CC4(CN(c5nccn6cnnc56)C4)NC3=O)nc12 (stereo partly shown) [Compound 88] | ***** (>2.5° C.=*****)
33 | Cc1c(O)ncnc1N1CC2(CN(CC(O)c3nc4c(C)cc(OC[C@H](C)c5ccccc5)cn4n3)C(=O)N2)C1 (stereo partly shown) [Compound 89] | ***** (>2.5° C.=*****)
34 | Cc1cc(OC[C@H](C)c2ccccc2)cn2nc(CCN3CC4(CCN(C(=O)C5(c6ccccn6)CC5)CC4)NC3=O)nc12 [Compound 90] | *** (>1-1.5° C.=***)
35 | Cc1cc(OC[C@H](C)c2ccccc2)cn2nc(CCN3CC4(CCN(C(=O)c5ncccn5)CC4)NC3=O)nc12 [Compound 91] | **** (>1.5-2.5° C.=****)
36 | Cc1cc(OC[C@H](C)c2ccccc2)cn2nc(CCN3CC4(CCN(C(=O)c5ncnn5C)CC4)NC3=O)nc12 [Compound 92] | **** (>1.5-2.5° C.=****)
37 | Cc1cc(OC[C@H](C)c2ccccc2)cn2nc(CCN3CC4(CCN(C(=O)c5nncn5C)CC4)NC3=O)nc12 [Compound 93] | **** (>1.5-2.5° C.=****)
38 | Cc1nccnc1N1CCC2(CC1)CN(CCc1nc3c(C)cc(OC[C@H](C)c4ccccc4)cn3n1)C(=O)N2 [Compound 94] | **** (>1.5-2.5° C.=****)
39 | Cc1cc(OC[C@H](C)c2ccccc2)cn2nc(CCN3CC4(CCN(c5cc(C(F)(F)F)ccn5)CC4)NC3=O)nc12 [Compound 95] | *** (>1-1.5° C.=***)
40 | Cc1cc(OC[C@H](C)c2ccccc2)cn2nc(CCN3CC4(CCN(c5ccnc(C(F)(F)F)c5)CC4)NC3=O)nc12 [Compound 96] | *** (>1-1.5° C.=***)
41 | Cc1cc(N2CCC3(CC2)CN(CCc2nc4c(C)cc(OC[C@H](C)c5ccccc5)cn4n2)C(=O)N3)ccn1 [Compound 98] | ***** (>2.5° C.=*****)
42 | Cc1cc(OC[C@H](C)c2ccccc2)cn2nc(CCN3CC4(CCN(c5cc(Cl)nc(S(C)(=O)=O)n5)CC4)NC3=O)nc12 [Compound 99] | **** (>1.5-2.5° C.=****)
43 | Cc1cc(OC[C@H](C)c2ccccc2)cn2nc(CCN3CC4(CCN(c5ccc(C#N)cn5)CC4)NC3=O)nc12 [Compound 100] | **** (>1.5-2.5° C.=****)
44 | Cc1nc(F)ccc1N1CCC2(CC1)CN(CCc1nc3c(C)cc(OC[C@H](C)c4ccccc4)cn3n1)C(=O)N2 [Compound 101] | ** (>0.5-1° C.=**)
45 | Cc1cc(OC[C@H](C)c2ccccc2)cn2nc(CCN3CC4(CCN(c5cccc(Cl)n5)CC4)NC3=O)nc12 [Compound 102] | *** (>1-1.5° C.=***)
46 | Cc1cc(OC[C@H](C)c2ccccc2)cn2nc(CCN3CC4(CCN(c5cccnc5C(F)(F)F)CC4)NC3=O)nc12 [Compound 104] | ** (>0.5-1° C.=**)
47 | Cc1cc(OC[C@H](C)c2ccccc2)cn2nc(CCN3CC4(CCN(c5ccnc(O)c5)CC4)NC3=O)nc12 [Compound 105] | ***** (>2.5° C.=*****)
48 | Cc1cc(OC[C@H](C)c2ccccc2)cn2nc(CCN3CC4(CCN(c5ccnc(S(C)(=O)=O)n5)CC4)NC3=O)nc12 [Compound 106] | ***** (>2.5° C.=*****)
49 | Cc1ncc(N2CCC3(CC2)CN(CCc2nc4c(C)cc(OC[C@H](C)c5ccccc5)cn4n2)C(=O)N3)s1 [Compound 107] | **** (>1.5-2.5° C.=****)
